The values below come from patent publication US20240293405A1, “(1H-PYRROLO[2,3-B]PYRIDIN-1-YL)PYRIMIDIN-2-YL-AMINO-PHENYL-ACRYLAMIDE INHIBITORS OF EGFR FOR USE IN THE TREATMENT OF BRAIN TUMORS” (Dana-Farber Cancer Institute, Inc., priority 2021, published 2024).

“And” between values parts separate entries of the source, which are not always exact repeats. Equal entries are not always repeated. Where two headings read alike, the source gives them in different places.

Series [1] relates to P-gp, Bcrp. Particulars: previously published report; cited from earlier work.
Series [2] concerns Glioblastoma. Particulars: previously published report, cited from earlier work.
The test system of series [3] is BT112 cells. As to the kind of experiment: Cell viability, patient-derived GBM line BT112. Particulars: Homo sapiens, 72 h.
Procedure: (§1) Primary human glioblastoma lines BT112, BT179 and BT333 were maintained in NeuroCult proliferation medium (human) (StemCell Technologies) with 20 ng/ml EGF, 10 ng/ml FGF and 0.0002% Heparin.
(§2) Cells were seeded in 96-well plates at a density of 1,000 cells per well and treated with two-fold serial dilutions of compounds with a starting concentration of 20 μM. Cell viability was assessed after three days of treatment by CellTiter-Glo (Promega). Curve fitting analysis and IC50 value determination were performed using GraphPad Prism 8.
Series [4] has as its system BT179 cells. Put plainly: Cell viability, patient-derived GBM line BT179. The note with it: Homo sapiens, 72 h.
Procedure: as §1, §2
Series [5] has as its system BT333 cells. As to the kind of experiment: Cell viability, patient-derived GBM line BT333. Particulars: Homo sapiens, 72 h.
Procedure: as §1, §2
Series [6] in a line: Brain and plasma exposure after single oral dose. It counts as in vivo, Sprague Dawley rats. The note with it: gefitinib 50 mg/kg PO. An excerpt:
Genfitinib concentrations were quantitated by LC-MS/MS from brain and plasma from Group 1 animals.

Series [7] in a line: Brain and plasma exposure after 5 hour intravenous infusion. Format: in vivo, Sprague Dawley rats. Particulars: 3 mg/kg IV infusion over 5 h. The method, then:
A single IV infustion for 5 hours was administered to each animal, which were then twice observed clinically (30 minutes to 1 hour post-posing and at the end of the study (TTerminal). Blood samples were collected at 5 time points from each animal over the 5 hour infusion period (5 minutes, 1 hour, 2, hours, 3 hours and TTerminal) and processed to plasma. Brains were collected at Tterminal (blotted, weighed, and snap frozen) and brain exposure was compared. […]

Series [8] in a line: Brain and plasma exposure after single oral dose. It counts as in vivo, Sprague Dawley rats. The note with it: Sprague Dawley, rat, 50 mg/kg, gefitinib 50 mg/kg PO, 7 hr; for concentration at 7 h: oral.

Turning to `CN(C)C/C=C/C(=O)Nc1cc2c(Nc3ccc(F)c(Cl)c3)ncnc2cc1O[C@H]1CCOC1` [Afatinib], the “Efflux Liability” value in series [1] was “P-gp, Bcrp”.
Take `C#Cc1cccc(Nc2ncnc3cc(OCCOC)c(OCCOC)cc23)c1` [Erlotinib]: the “Efflux Liability” value in series [1] was “P-gp, Bcrp”. The “Glioblastoma (treatment outcome)” value was “Failed” in series [2] and “failed” in series [2] (listed as erlotinib). Further, the IC50 (usually the point on the concentration scale where inhibition reaches its midpoint) came to 18.5 µM in series [3], 11.7 µM in series [4] and 52.3 µM in series [5].
As to `COc1cc2ncnc(Nc3ccc(F)c(Cl)c3)c2cc1OCCCN1CCOCC1` [Gefitinib, reference compound], the concentration at 3 h in series [6] (Sprague Dawley, rat, plasma, oral, 50 mg/kg, 3 hr, mean n=3) worked out at 1950 ng/mL. Further, the “Plasma Concentration” value in series [6] (3 hr, individual animal) was 2660 ng/mL and 1940 ng/mL and 1260 ng/mL; in series [6] (7 hr, individual animal), 2240 ng/mL and 4700 ng/mL and 1030 ng/mL. The “Brain Tissue Concentration” value is 666 ng/g and 562 ng/g and 561 ng/g in series [6] (7 hr, individual animal); 153 ng/g and 129 ng/g and 151 ng/g and 149 ng/g and 189 ng/g and 155 ng/g in series [7] (5 h, individual animal, Compound 2 as metabolite in Compound 1-dosed rats). The concentration at 5 h in series [7] (male, Sprague Dawley, rat, brain, intravenous, 3 mg/kg, 5 h, individual animal, Compound 2 as metabolite in Compound 1-dosed rats, read-out: Brain Tissue Concentration) stood at 155 ng/g; in series [7] (male, Sprague Dawley, rat, brain, intravenous, 3 mg/kg, 5 h, mean n=6, Compound 2 as metabolite, read-out: Brain Tissue Concentration) it was 154 ng/g; in series [7] (male, Sprague Dawley, rat, plasma, intravenous, 3 mg/kg, 5 h, individual animal, Compound 2 as metabolite in Compound 1-dosed rats, read-out: Plasma Concentration) it was 286 ng/mL. Further, the concentration at 0.083 h in series [7] (male, Sprague Dawley, rat, plasma, intravenous, 3 mg/kg, 0.083 h, individual animal, Compound 2 as metabolite in Compound 1-dosed rats) amounted to 55.6 ng/mL. Further, in series [7] (male, Sprague Dawley, rat, plasma, intravenous, 3 mg/kg, 1 h, individual animal, Compound 2 as metabolite in Compound 1-dosed rats), the concentration at 1 h was 115 ng/mL. In addition, the concentration at 2 h in series [7] (male, Sprague Dawley, rat, plasma, intravenous, 3 mg/kg, 2 h, individual animal, Compound 2 as metabolite in Compound 1-dosed rats) amounted to 161 ng/mL. Further, the concentration at 7 h came to 561 ng/g in series [8] (brain, individual animal, read-out: Brain Tissue Concentration); 596 ng/g in series [8] (brain, mean n=3, read-out: Brain Tissue Concentration); 2660 ng/mL in series [8] (plasma, mean n=3, read-out: Plasma Concentration). The Kp at 7 h in series [8] (brain, po, mean n=3, read-out: Brain/Plasma (ratios)) came out at 0.22. In addition, the “Efflux Liability” value in series [1] is recorded as “P-gp, Bcrp”. In addition, the “Glioblastoma (treatment outcome)” value in series [2] is listed as “Failed”; in series [2] (listed as gefitinib), “failed”.
Turning to `CS(=O)(=O)CCNCc1ccc(-c2ccc3ncnc(Nc4ccc(OCc5cccc(F)c5)c(Cl)c4)c3c2)o1` [Lapatinib], the IC50 stood at 5.22 µM in series [3], 2.32 µM in series [4] and 7.91 µM in series [5].
With `COc1cc2ncnc(Nc3ccc(F)c(Cl)c3)c2cc1NC(=O)/C=C/CN1CCCCC1` [Vizimpro], the “Glioblastoma (treatment outcome)” value in series [2] is listed as “Failed”; in series [2] (listed as visimpro), “failed”.
